Experiment [1] deals with mβ2AR::GFP fusion ΔCt➔E338 (Mus musculus, UniProt P18762). The experiment is described as follows: cell-based. Particulars: read-out: Maximum response (% of mβ2AR::GFP). As to the method: (§1) Calcium-based Fluorometric Imaging Plate Reader (FLIPR) experiments were performed as described previously. Mutants analyzed in each figure come from the same FLIPR experiment. […] Relative Fluorescent Units were baseline corrected by subtracting the lowest fluorescent measure for each experiment and a curve was fitted using a 3 parameters model (Hill Slope = 1) using the GraphPad software. Half maximal effective concentrations (EC50) were then calculated and are given in nM. The maximum response, as a percent of wild type, was calculated by reporting the span for a mutant over the span for the wild type.

Experiment [2] addresses mβ2AR::GFP fusion mouse RDY (Mus musculus, UniProt P18762, D130R/R131D). The experiment can be described thus: cell-based. Particulars: Fig 4K. As to the method: as §1
In experiment [3] the target is mβ2AR::GFP fusion mouse E268A (Mus musculus, UniProt P18762, E268A). The experiment can be described thus: cell-based. Conditions: read-out: Maximum response (% of mβ2AR::GFP), span of mutant over span of wild type; Fig 4K. As to the method: as §1
In experiment [4] the target is mβ2AR::GFP fusion ΔCt➔L339 (Mus musculus, UniProt P18762). The experiment is described as follows: cell-based. Particulars: read-out: Maximum response (% of mβ2AR::GFP). As to the method:
as §1

The target in experiment [5] is mβ2AR::GFP fusion Y326A (Mus musculus, UniProt P18762, Y326A). The experiment is described as follows: cell-based. Conditions: read-out: Maximum response (% of mβ2AR::GFP). As to the method: as §1
Experiment [6] addresses mβ2AR::GFP fusion ΔCt➔Y350 (Mus musculus, UniProt P18762). The experiment can be described thus: cell-based. Conditions: read-out: Maximum response (% of mβ2AR::GFP). As to the method:
as §1

Experiment [7] addresses mβ2AR::GFP fusion no-NxS (N6A and N15A) (Mus musculus, UniProt P18762, N15A/N6A). The experiment can be described thus: cell-based. Conditions: read-out: Maximum response (% of mβ2AR::GFP). As to the method:
as §1

For experiment [8], the target named is mβ2AR::GFP fusion mouse C327R (Mus musculus, UniProt P18762, C327R). The experiment is described as follows: cell-based. Conditions: read-out: Maximum response (% of mβ2AR::GFP). As to the method:
as §1

Experiment [9] concerns mβ2AR::GFP fusion NtΔ9AA/Y326A/ΔCt➔R328. Particulars: FLIPR dose response; Fig 6E and 6F, comparable to mock. As to the method:
as §1

The target of experiment [10] is mβ2AR::GFP fusion NtΔ9AA/ΔCt➔Y350/ΔC341 (Mus musculus, UniProt P18762, DEL341, form not given). Particulars: span of mutant over span of wild type; Fig 3. As to the method:
as §1

For experiment [11], the target named is mβ2AR::GFP fusion Y326A/ΔCt➔R328 (Mus musculus, UniProt P18762, Y326A). Conditions: FLIPR dose response; Fig 6E, comparable to no plasmid-mock transfection. As to the method:
as §1

Experiment [12] deals with mβ2AR::GFP fusion no-NxS/Y326A/ΔCt➔R328 (Mus musculus, UniProt P18762, N15A/N6A/Y326A). Particulars: FLIPR dose response; Fig 6E and 6F, comparable to mock. As to the method:
as §1

The target of experiment [13] is mβ2AR::GFP fusion ΔCt➔Q337 (Mus musculus, UniProt P18762). Particulars: FLIPR dose response; Fig 5E. As to the method:
as §1

The target in experiment [14] is mβ2AR::GFP fusion mβ2AR/M71-Ct (Mus musculus, UniProt P18762). Conditions: span of mutant over span of wild type; Fig 7. As to the method: as §1
Experiment [15] has as its system mβ2AR::GFP fusion M71-Nt/Y326A/ΔCt➔R328. Conditions: FLIPR dose response; Fig 6E and 6F, comparable to mock. As to the method: as §1
The target in experiment [16] is mβ2AR::GFP fusion ΔCt➔A335 (Mus musculus, UniProt P18762). Conditions: FLIPR dose response; Fig 5E. As to the method: as §1
The target of experiment [17] is mβ2AR::GFP fusion M71-Nt/mβ2AR/M71-Ct (Mus musculus, UniProt P18762). Conditions: span of mutant over span of wild type; Fig 7. As to the method:
as §1

Experiment [18] has as its target mβ2AR::GFP fusion NtΔ9AA/mβ2AR/M71-Ct (Mus musculus, UniProt P18762). Particulars: span of mutant over span of wild type; Fig 7. As to the method:
as §1

The subject of experiment [19] is rat I7 (rI7) OR, rI7(RDY). The arrangement: method as in PMID 16990513, PMID 25550517. Particulars: neurons expressing rI7(RDY); cited from earlier work.

Turning to `CC(C)NCC(O)c1ccc(O)c(O)c1` (centres unmarked) [Isoprenaline, isoprenaline], the Emax in [1] amounted to 19%; in experiment [2] (read-out: Maximum response (% of mβ2AR::GFP), span of mutant over span of wild type) it was 58%; in experiment [3], 51%; in [4] it was 27%; in experiment [5], 89%; in [6] it was 70%. The Emax amounted to 120% in experiment [7] and 58% in experiment [8]. Moreover, the “Maximum response (% of mβ2AR::GFP)” value in [2] (span of mutant over span of wild type) is recorded as ~ 60%; in experiment [10], 77%; in [14], 47%; in experiment [17], 32%; in experiment [18] it was 34%. The induction by isoprenaline result in [9], in [12] and in [15] was “not induced” throughout. Besides, the “capacity to signal after isoprenaline exposure” value in experiment [11] is recorded as “no capacity to signal”. Further, the isoprenaline-mediated responses entry in experiment [13] and in [16] was “do not find isoprenaline-mediated responses” throughout.
Take `CCCCCCCC=O` [octanal]: in [19], the “Ca2+ signals in response to octanal” value is given as “do not show Ca^2+ signals”.
